Laboratory results from US20170273922A1, “UREA AND BIS-UREA BASED COMPOUNDS AND ANALOGUES THEREOF USEFUL IN THE TREATMENT OF ANDROGEN RECEPTOR MEDIATED DISEASES OR DISORDERS” (THE ROYAL INSTITUTION FOR THE ADVACEMENT OF LEARNING/MCGILL …, priority 2014, published 2017).
Entries after “also recorded” stand apart in the source; their conditions may differ.

Tests used:
22Rv1 cells = experiment: Western blot analysis of apoptosis in 22Rv1 cells; assay type: cell-based; settings: phenol red-free medium+10% CS-FBS, 24 h
From the text: A) The 22Rv1 cells express substantial level of AR-Vs, which include AR-V7 and other AR variants lacking the LBD. The ARs were probed by N-terminal directed AR antibody (N20, Santa Cruz); B) The 22Rv1 cells were androgen-starved (in phenol red-free medium+10% CS-FBS) for 3 days to ensure the full-length AR expressed in 22Rv1 are not activated. The 22Rv1 cells were subsequently co-transfected with PSA-luc and pRL-TK plasmids. […] Cells in phenol red-free medium+10% CS-FBS were exposed to DMSO or compounds for 24 h and harvested for Western blot analysis.

full-length IRF3 = biological target: T1, full-length IRF3 (Homo sapiens, UniProt Q14653); experiment: Full-length IRF3 ISRE-luc reporter assay; assay type: cell-based; settings: PC3 cells, 24 h
T1 construct: co-transfected with full-length IRF3 or IRF3DBD-AR(1-547) expressing plasmids; expressed in transfected cells
T1 sequence (Q14653 1-427): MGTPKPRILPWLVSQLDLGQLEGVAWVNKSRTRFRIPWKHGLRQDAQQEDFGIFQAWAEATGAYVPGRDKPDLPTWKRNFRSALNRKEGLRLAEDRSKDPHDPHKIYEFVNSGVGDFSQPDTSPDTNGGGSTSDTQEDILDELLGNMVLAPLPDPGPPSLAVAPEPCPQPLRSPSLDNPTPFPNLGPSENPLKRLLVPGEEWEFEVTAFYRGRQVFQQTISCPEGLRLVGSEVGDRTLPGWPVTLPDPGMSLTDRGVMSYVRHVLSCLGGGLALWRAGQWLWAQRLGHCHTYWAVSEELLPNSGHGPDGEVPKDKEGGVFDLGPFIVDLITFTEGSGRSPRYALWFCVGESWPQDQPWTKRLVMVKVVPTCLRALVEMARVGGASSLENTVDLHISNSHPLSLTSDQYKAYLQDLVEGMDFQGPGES
From the text: For all of the others, cells were co-transfected with full-length IRF3 or IRF3DBD-AR(1-547) expressing plasmids and with the ISRE-luc reporter and pRL-TK plasmids. […] As IRF3DBD-AR(1-547) contains the DBD of IRF3, ISRE-luc reporter instead of the PSA-luc reporter was used in our assays.
HEK293 cells were co-transfected with IRF3DBD(1-133) or IRF3DBD-AR(1-547) or IRF3DBD-AR(181-547) or full-length IRF3 expressing plasmids and with the ISRE-luc reporter and the Renilla luciferase pRL-TK plasmids.
Here, IRF3-AR(1-547) is the fusion of IRF3 DBD with the AR NTD (1-547). […] The plasmids expressing IRF3-AR(1-547) (A) or wild-type IRF3 (B) or IRF3 DBD (for NT) as well as ISRE-luc and pRL-TK were transiently transfected into PC3 cells. […] Bic, bicalutamide; EPI, EPI-001.

[1] = biological target: T2, H874Y mutant of full-length AR in 22Rv1 cells (Homo sapiens, UniProt P10275, H875Y); experiment: PSA-luc reporter assay in 22Rv1 cells, DHT-induced (endogenous H874Y full-length AR); assay type: cell-based
T2 sequence (P10275 1-920 H875Y): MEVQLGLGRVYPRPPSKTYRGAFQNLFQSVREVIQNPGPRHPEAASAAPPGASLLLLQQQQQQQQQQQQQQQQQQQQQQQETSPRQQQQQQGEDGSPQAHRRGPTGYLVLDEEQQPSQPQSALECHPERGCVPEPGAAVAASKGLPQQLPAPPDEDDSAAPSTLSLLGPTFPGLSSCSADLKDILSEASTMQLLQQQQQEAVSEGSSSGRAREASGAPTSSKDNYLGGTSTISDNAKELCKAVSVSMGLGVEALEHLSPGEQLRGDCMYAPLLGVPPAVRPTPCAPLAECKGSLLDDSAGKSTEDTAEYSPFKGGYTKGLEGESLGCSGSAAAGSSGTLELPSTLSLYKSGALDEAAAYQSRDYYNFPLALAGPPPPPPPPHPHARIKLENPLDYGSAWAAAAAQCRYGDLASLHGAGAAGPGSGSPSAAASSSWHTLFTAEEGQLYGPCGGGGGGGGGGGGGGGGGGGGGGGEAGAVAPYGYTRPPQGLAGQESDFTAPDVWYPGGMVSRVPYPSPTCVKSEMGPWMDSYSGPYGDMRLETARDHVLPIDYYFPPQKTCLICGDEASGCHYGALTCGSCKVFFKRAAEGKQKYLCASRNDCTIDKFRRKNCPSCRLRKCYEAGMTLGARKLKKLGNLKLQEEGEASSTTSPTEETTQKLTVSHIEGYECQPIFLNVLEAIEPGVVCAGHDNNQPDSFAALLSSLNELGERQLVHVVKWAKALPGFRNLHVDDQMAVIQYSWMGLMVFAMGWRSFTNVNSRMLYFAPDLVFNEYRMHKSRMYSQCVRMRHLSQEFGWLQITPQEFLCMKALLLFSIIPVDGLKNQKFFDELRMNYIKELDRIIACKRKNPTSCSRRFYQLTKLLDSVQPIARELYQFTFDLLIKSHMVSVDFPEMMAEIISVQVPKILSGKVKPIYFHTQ

VP16-AR(507-919) = VP16-AR(507-919) (NTD-deleted) PSA-luc reporter assay; settings: 10 nM DHT, 24 h; PC3 or HEK293 cells
[2] = MTT assay (cytotoxicity), DU145 cells; assay type: cell-based; settings: human, DU145 cells, Table 4.1
In short: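 Following overnight attachment at 6-7×10^3 cells per well, cultures receive compound for 72 h in serum-containing (10% FBS) RPMI 1640. MTT then quantifies surviving cells, with each experiment done in triplicate and repeated at least twice.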

[3] = MTT assay (cytotoxicity), H1975 cells; assay type: cell-based; settings: human, 72 h treatment, Table 6.1
Experimental: (§1) MTT assays: LNCaP, 22Rv1, Du145, H1975, A549, MB231 and MCF-7 cells are maintained in RPMI 1640 supplemented with 10% FBS. Cells were seeded at a density of 6-7×10^3 cells per well in 96-well plates. After overnight incubation, cells in fresh RPMI 1640 supplemented with 10% FBS were exposed to DMSO vehicle control or test compounds at designated concentrations for 72 h. Viable cells were evaluated by MTT assays. Experiments were performed in triplicate and repeated at least twice.

[4] = MTT assay (cytotoxicity), A549 cells; assay type: cell-based; settings: human, 72 h treatment, Table 6.1
Experimental: as §1

[5] = MTT assay (cytotoxicity), MB231 cells; assay type: cell-based; settings: human, 72 h treatment, Table 6.1
Experimental: as §1

[6] = MTT assay (cytotoxicity), MCF-7 cells; assay type: cell-based; settings: human, 72 h treatment, Table 6.1
Experimental: as §1

[7] = MTT assay (72 h), liver hepatocellular carcinoma cell line of Table 6.1; assay type: cell-based; settings: human, HepG2 cells (liver hepatocellular carcinoma), 72 h treatment, read-out: Cytotoxicity (IC50, μM) HepG2

SMILES	apoptosis in 22Rv1 cells (22Rv1 cells)	activity against wild-type IRF3 (ISRE-luc) (full-length IRF3)	inhibition of DHT-induced AR activation in 22Rv1 cells (PSA-luc) ([1]; 10 nM DHT, 24 h)	inhibition of DHT-induced activation of VP16-AR(507-919) (PSA-luc) (VP16-AR(507-919))	further results
N#Cc1ccc(NC(=O)Nc2cccc(C(F)(F)F)c2)cc1C(F)(F)F [Compound 467]	induced apoptosis				
O=C(N/C=C/c1cccc(C(F)(F)F)c1)Nc1ccncn1 [Compound 562]		inactive	good activity	inactive	melting point: 213 to 215 °C
O=C(Nc1cccc(C(F)(F)F)c1)Nc1ccc([N+](=O)[O-])c(C(F)(F)F)c1 [Compound 442]	induced apoptosis				
O=C(Nc1ccc(Br)nc1)Nc1cc(C(F)(F)F)cc(C(F)(F)F)c1 [Compound 566]					IC50 at 72 h [2]: 1.7 µM
O=C(Nc1cccc(C(F)(F)F)c1)Nc1ccc(NC(=O)c2ccccc2F)c(C(F)(F)F)c1 [Compound 746]		inactive	suppressed; also recorded: good activity	inactive	IC50 at 72 h [3]: 2.5 µM; IC50 at 72 h [4]: 2.4 µM; IC50 at 72 h [5]: 4.6 µM; IC50 at 72 h [6]: 2.5 µM; IC50 at 72 h [7]: 1.2 µM; inhibition of DHT-induced AR activation in 22Rv1 cells (PSA-luc) ([1]; 1 μM): showed inhibitory activity
